# How the values were obtained:
# [1] = biological target: T1, recombinant human GBA1 (rhGBA1, Cerezyme) (Homo sapiens, UniProt P04062, R534H); assay: Thermostability of rhGBA1, label-free differential scanning fluorimetry (Tycho NT.6); type: binding; conditions: rhGBA1 at 1 μM, 20 mM HEPES pH 7.0, 100 mM NaCl, 0.5% DMSO, 2 h room temperature; N. D. = not determined due to a lack of stabilisation effect
# T1 construct: purchased Cerezyme
# T1 sequence (P04062 40-536 R534H): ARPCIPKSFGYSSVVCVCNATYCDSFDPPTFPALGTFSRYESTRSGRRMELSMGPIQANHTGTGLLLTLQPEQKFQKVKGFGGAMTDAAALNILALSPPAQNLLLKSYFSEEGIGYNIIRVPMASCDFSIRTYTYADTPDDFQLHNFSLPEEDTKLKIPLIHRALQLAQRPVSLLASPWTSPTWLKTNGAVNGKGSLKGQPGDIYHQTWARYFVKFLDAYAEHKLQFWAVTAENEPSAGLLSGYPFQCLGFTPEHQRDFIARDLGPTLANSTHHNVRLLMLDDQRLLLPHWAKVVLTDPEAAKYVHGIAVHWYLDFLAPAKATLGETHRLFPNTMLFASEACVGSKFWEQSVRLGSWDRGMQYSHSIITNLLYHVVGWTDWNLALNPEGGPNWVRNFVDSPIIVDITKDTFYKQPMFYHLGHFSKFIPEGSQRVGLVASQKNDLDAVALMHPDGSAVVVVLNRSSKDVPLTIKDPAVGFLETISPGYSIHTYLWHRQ
# Experimental: Samples were incubated at room temperature for 2
# hours before measurement in the Tycho NT6.
# Thermostability assays in rhGBA (Cerezyme)
# Varying concentrations of peptides were incubated with 1 µM rhGBA1 in 20 mM HEPES pH 7.0 with 100 mM NaCl, with a final DMSO concentration of 0.5 %, for 2 hours at room temperature. Melting
# [2] = tested on: rhGBA1 (Cerezyme) in plasma; assay: Stabilisation of rhGBA1 in plasma, 4-MU activity; type: biochemical, human; conditions: rhGBA1 10 nM in plasma, peptides 0.001-10 μM or Ambroxol 100-1000 μM, 0-120 minutes, 0.5% DMSO
# Experimental: We then investigated whether peptides L4, D8, and D12 could stabilise rhGBA1 in plasma. […] The solutions were then incubated with 4-MU-β-D-Glu for an additional 30 minutes, and the remaining rhGBA1 activity was determined.
# Specifically, high concentrations of all peptides (10–1 μM) led to enzyme binding but also GBA1 inhibition after short incubations (0 to 30 minutes). […] To discard potential degradation of D8 and D12 during plasma experiments, the peptides were incubated in plasma at 0.1 μM for 2 hours, followed by the addition of rhGBA1 to measure its activity. This was compared to controls where D8 and D12 were added to plasma and directly tested for GBA1 activity.
# Fig. 3 Stabilisation of rhGBA1 (10 nM) in plasma by cyclic peptides D8 and D12. […] Control contained 0.5% DMSO. Error ranges depict standard deviations from n = 3 replicates, measured in technical duplicates. *p < 0.05, **p < 0.01, ***p < 0.001.
# Selective Cyclic Peptide Ligands as GBA1 Stabilizers Katzy et al. curves were determined in triplicate using the Tycho NT.6 (NanoTemper), according to manufacturer […]
# 2.9. Cerezyme Stabilization studies in plasma […]
# Specific GBA1 activity was determined as described above, with 25 µL of sample incubated for 30 min with 3.7 mM 4MU-β-Glc substrate.
compound,measurement,setting,value
"Nc1c(Br)cc(Br)cc1CN[C@H]1CC[C@H](O)CC1 [Ambroxol, reference compound]","ΔTi,max",[1],12.3 ± 5.4 °C
same,stabilisation of rhGBA1 against degradation in plasma,[2],no stabilisation effect

# Source: publication PMC11808397, “Development of selective nanomolar cyclic peptide ligands as GBA1 enzyme stabilisers” (RSC Chemical Biology, 2025)
